Data reported in patent publication US4251563A, “Compositions containing N-nitrosamine formation or oxidation inhibitors and the use thereof” (Pfizer Inc., priority 1979, dated 1981).
≈ marks a conversion by molar mass, not a printed value. Where “and” joins values, the source holds several entries; their conditions need not be identical. Equal values may be shown once. Read-outs that look alike come from different tables or passages of the source.

How the values were obtained:
[1] = general statement, not tested in Example 7; cited from earlier work
[2] = Nitrosopyrrolidine formation in treated and untreated fried bacon, thermal energy analysis (TEA); conditions: for Level of nitrosopyrrolidine (NPy) detected in fried bacon: duplicate; for Reduction of nitrosopyrrolidine relative to untreated fried bacon: treated vs untreated fried bacon; for Level of reduction of nitrosopyrrolidine compared with tocopherol: vs positive control 500 ppm tocopherol
Description: (§1) Several base pickle solutions were prepared in tap water using the following proportions of ingredients: 2.0% sodium tripolyphosphate; 2.5% sucrose, 0%, 0.20% or 0.55% sodium erythorbate; 0.12% or 0.20% sodium nitrite; and 17.0% sodium chloride. Each ingredient was added to the water in the order given and completely dissolved before adding the next ingredient. The desired amount of ascorbyl or erythorbyl laurate was added to selected base solutions as follows. A dispersion or ascorbyl or erythorbyl laurate and Tween 20 was prepared by slurrying 2 parts of Tween 20 and 5 parts of ascorbyl or erythorbyl laurate, hydrating the slurry with a small amount of the base pickle solution and vigorously agitating the hydrated slurry for 10 min to break up the large agglomerates that formed. […] The resultant mixture was homogenized 2 times at 1000 psi in a single-stage homogenizer to give the final pickle solution. The pickle solution was chilled to about 40° F. immediately after preparation and used to prepare the bacon on the day of preparation. Duplicate pork bellies of about 10 lbs weight were stitch-pumped using each of the various concentrations of control or laurate treated cooled, agitated pickle solutions. […] The combined bacon slices from each belly were analyzed for dimethylnitrosamine and nitrosopyrrolidine using standard procedures and a TEA analyzer.

[3] = Dimethylnitrosamine formation in treated and untreated fried bacon, thermal energy analysis (TEA); conditions: duplicate
Description: as §1

[4] = Equilibrium oil-water solubility and phase distribution coefficient; assay type: physicochemical; conditions: for Total solubility (in words): oil and water; for Total Solubility: oil plus water phase; for solubility: vegetable oil/water, stirred overnight
Description: The oil and water layers were separated by centrifugation at 10,000 rpm for 30 min. Any undissolved ester was removed by gravity filtration through fluted filter paper. The oil and water layers were assayed for ester using 0.01N I2 solution.

[5] = Mayonnaise storage test: color, odor and freshness; conditions: three months at room temperature; 200 ppm in the vegetable oil
Description: In an electric beater, 20 g of egg yolks, 1.2 g of dry mustard, 3.0 g of salt, and 10 ml of vinegar are combined and well beaten; 144 g of vegetable oil (such as cottonseed, corn, or sesame) which contains 200 ppm (0.02%) of ascorbyl or erythorbyl laurate is then added with constant whipping, and beating is continued until there is complete emulsification and no free oil remains. An additional 10 ml of vinegar is added and the beating is continued for a few minutes longer until the emulsion is smooth and of a semi-solid consistency. The resultant mayonnaise is packed in jars and capped.
After three months of storage at room temperature, the color, odor and freshness of the treated mayonnaise are evaluated against similarly stored, untreated mayonnaise and against freshly prepared mayonnaise.

[6] = Emollient lotion accelerated stability test; conditions: accelerated stability tests of Example 3
Description: (§2) Using an accelerated stability test at 63° C. this hand creme is compared to a similarly prepared hand creme containing no erythorbyl laurate. After one month of storage at 63° C., the color, appearance and odor of both hand cremes are evaluated against freshly prepared control hand creme.
An oil phase consisting of 70 g of mineral oil, 30 g of lanolin, and 30 g of glycerol monostearate and heated to 75° C. is added to a water phase consisting of 15 g triethanolamine, 200 mg of erythorbyl caprate, and 849 ml of water, also at 75° C. After thoroughly mixing the oil and water phases at 75° C., the emulsion is cooled to 45° C. and perfumed. After cooling to room temperature the emulsion is homogenized to give the emollient lotion.
Using the accelerated stability tests of Example 3 the treated emollient lotion is compared to a similarly prepared, untreated emollient lotion.

[7] = Hand creme N-nitrosamine analysis by TEA
Description: (§3) A hand creme is prepared by mixing a water phase at 70° C. with an oil phase at 75° C. The oil phase consists of 2.0 g of isopropyl myristate, 2.0 g of cetyl alcohol, 15.0 g of stearic acid, 2.0 g of lanolin, and 20.0 mg of erythorbyl laurate. The water phase consists of 71.6 ml of deionized water, 3.0 g of glycerol, 3.0 g of 70% sorbitol, and 1.4 g of triethanolamine. After thoroughly mixing the oil and water phases, the emulsion is cooled to 45° C. at which time the appropriate perfumes are added and mixed thoroughly into the emulsion. After cooling the emulsion to room temperature, the resultant hand creme is placed in an opaque glass jar and sealed.
Portions of the hand cremes described above may be analyzed for N-nitrosamines using a Thermal Energy Analyzer (TEA) and standard procedures.

[8] = Bologna storage test: panel comparison of color, odor and flavor; conditions: stored at 36°-40° F. for 1 month
Description: (§4) In a large mixer there are combined 60 lb of whole carcass beef which has been ground through a 1/4" plate, 40 lb of regular pork trimmings which has been ground through a 3/8" plate, 2 lb 12 oz of salt, 8 oz of sugar, 4 oz of ground white pepper, 1 oz of coriander, 1 oz of mace, 0.85 oz of sodium erythorbate, 0.25 oz of sodium nitrite, and 1.00 oz of erythorbyl laurate. 25 lb of chopped ice is added and the mixture is cycled through a mechanical emulsifier until the desired texture is attained. The finished emulsion is transferred to a casing stuffer and stuffed into a No. 8 by 36 in. fibrous casing. The resultant product is ready for smoking, which will require approximately 8 hrs. The product is placed in a smokehouse at 130° F. with the damper open and cooked for 30 min. The damper is then closed and the temperature is raised 10° F./hr to 170° F. The heating is continued at 170° F. until an internal temperature of 156° F. is reached. The resultant bologna is cold showered with tap water for 35 to 40 min, held at room temperature for 30 min, and placed in a cooler at 36°-40° F. This procedure will produce bolognas of approximately 18 lb with a 15 in. circumference.
The treated bologna is sliced, wrapped and stored at 36°-40° F. for 1 month and its color, odor and flavor are compared to a similarly prepared and stored, untreated bologna.

[9] = Bologna N-nitrosamine analysis by TEA
Description: as §4
The two bolognas may be analyzed for N-nitrosamines using standard procedures and a TEA analyzer.

[10] = Hand creme accelerated stability test at 63° C., color, appearance and odor by test panel; conditions: one month at 63° C.
Description: as §3, §2

[11] = Corn flakes storage test: rancid and painty taste; conditions: six months at room temperature; 0.005% by weight, aqueous spray
Description: In a cylindrical pressure cooker are placed about 1700 pounds of degermed and debranned, No. 4-5 milled, hybrid yellow corn and 36 gallons of flavoring syrup composed of sugar, malt, salt and water. The mixture is cooked at 18 psi steam pressure for about 11/2 hours to produce a moisture content of about 33%. Uniform translucency of the kernels will indicate an adequate cook. The kernels are crushed and dried to about 21% moisture. The dried, crushed grits are then heat tempered at 180° F. for 16 hours in order to evenly distribute the water content. The cooked, dried grits are flaked using a conventional flake roller and are passed directly to the toasting oven where they are heated at 575° F. for 50 seconds to produce the finished flakes of less than 3% moisture content. As they cool, they are treated with an aqueous spray of B-complex vitamins and 0.005% by weight erythorbyl laurate relative to the final corn flakes weight. The treated, finished flakes are placed in paper boxes with waxed paper liners.
Treated and untreated flakes are stored six months at room temperature and then compared.

[12] = 120 ppm NaNO2, 200 ppm NaEr only (null control)
[13] = 200 ppm NaNO2, 200 ppm NaEr only
[14] = organic solvent or mixture, read-out: Oil Phase Solubility
[15] = read-out: Water Phase Solubility
[16] = 120 ppm NaNO2, 550 ppm NaEr + 500 ppm AL, listed as AL
[17] = 120 ppm NaNO2, 550 ppm NaEr + 500 ppm EL

COc1ccc(O)c(C(C)(C)C)c1 [BHA]
Distribution coefficient (oil/water) (in words) [1]: essentially infinity
Water solubility (in words) [1]: water-insoluble

Cc1cc(C(C)(C)C)c(O)c(C(C)(C)C)c1 [BHT]
Distribution coefficient (oil/water) (in words) [1]: essentially infinity
Water solubility (in words) [1]: water-insoluble

O=C1O[C@H]([C@H](O)CO)C(O)=C1O [NaEr, sodium erythorbate, reference compound]
Level of nitrosopyrrolidine (NPy) detected in fried bacon [2, 12]: 4.2 ppb and 3.3 ppb
Level of nitrosopyrrolidine (NPy) detected in fried bacon [2, 13]: 3.6 ppb and 3.9 ppb
Level of dimethylnitrosamine (DMNA) detected in fried bacon [3, 12]: 1.0 ppb and 1.2 ppb
Level of dimethylnitrosamine (DMNA) detected in fried bacon ([3]; 120 ppm NaNO2, 550 ppm NaEr only (null control)): trace (Trace means less than 1 ppb)
Level of dimethylnitrosamine (DMNA) detected in fried bacon [3, 13]: 2.1 ppb and 1.6 ppb

CC(C)(C)c1cc(O)ccc1O [TBHQ]
Distribution coefficient (oil/water) (in words) [1]: essentially infinity
Water solubility (in words) [1]: water-insoluble

CCCCCCCCCC(=O)OC[C@H](O)[C@H]1OC(=O)C(O)=C1O [ascorbyl caprate, reference compound]
Total solubility (in words) ([4]; Example 7): high total solubility
Total Solubility [4]: 5400 ppm
Distribution coefficient (in words) ([4]; oil/water, Example 7): very low distribution coefficient
solubility [4, 14]: 100 µg/mL (≈ 303 µM)
solubility [4, 15]: 5300 µg/mL (≈ 16000 µM)

CCCCCCCCCCCC(=O)OC[C@H](O)[C@H]1OC(=O)C(O)=C1O [ascorbyl laurate]
Level of nitrosopyrrolidine (NPy) detected in fried bacon [2, 16]: 1.4 ppb and 2.4 ppb
Reduction of nitrosopyrrolidine relative to untreated fried bacon [2]: approximately four
Level of reduction of nitrosopyrrolidine compared with tocopherol [2]: about the same
Objectionable change in color, odor and freshness of mayonnaise [5]: substantially less objectionable change
Total Solubility [4]: 390 ppm
solubility [4, 14]: 250 µg/mL (≈ 697 µM)
solubility [4, 15]: 140 µg/mL (≈ 391 µM)
Level of dimethylnitrosamine (DMNA) detected in fried bacon [3, 16]: 2.7 ppb and 1.7 ppb
Level of dimethylnitrosamine (DMNA) detected in fried bacon ([3]; 200 ppm NaNO2, 550 ppm NaEr + 500 ppm AL, listed as AL): 1.6 ppb and 2.6 ppb

CCCCCCCCCCCCCCCC(=O)OC[C@H](O)[C@H]1OC(=O)C(O)=C1O [ascorbyl palmitate, reference compound]
Total solubility (in words) ([4]; Example 7): low total solubility
Total Solubility [4]: 175 ppm
solubility [4, 14]: 110 µg/mL (≈ 265 µM)
solubility [4, 15]: 65 µg/mL (≈ 157 µM)

CCCCCCCCCC(=O)OC[C@@H](O)[C@H]1OC(=O)C(O)=C1O [erythorbyl caprate]
Degradation relative to untreated emollient lotion [6]: substantially less degradation
Total Solubility [4]: 4000 ppm
solubility [4, 14]: 1500 µg/mL (≈ 4540 µM)
solubility [4, 15]: 2500 µg/mL (≈ 7570 µM)

CCCCCCCCCCCC(=O)OC[C@@H](O)[C@H]1OC(=O)C(O)=C1O [erythorbyl laurate]
Level of nitrosopyrrolidine (NPy) detected in fried bacon [2, 17]: trace (Trace means less than 1 ppb)
Level of nitrosopyrrolidine (NPy) detected in fried bacon ([2]; 200 ppm NaNO2, 550 ppm NaEr + 500 ppm EL): trace (Trace means less than 1 ppb)
Reduction of nitrosopyrrolidine relative to untreated fried bacon [2]: approximately four
Level of reduction of nitrosopyrrolidine compared with tocopherol [2]: about the same
Levels of N-nitrosamines relative to untreated hand creme [7]: substantially reduced levels of N-nitrosamines
Objectionable change in color, odor and flavor relative to untreated bologna [8]: substantially less objectionable change
Levels of N-nitrosamines relative to untreated bologna [9]: substantially reduced levels of N-nitrosamines
Objectionable change in color, odor and freshness of mayonnaise [5]: substantially less objectionable change
Total Solubility [4]: 700 ppm
solubility [4, 14]: 450 µg/mL (≈ 1260 µM)
solubility [4, 15]: 350 µg/mL (≈ 976 µM)
Objectionable change in color, appearance and odor relative to untreated hand creme [10]: substantially less objectionable change
Rancid and painty taste relative to untreated flakes [11]: insignificant rancid and painty taste
Level of dimethylnitrosamine (DMNA) detected in fried bacon ([3]; 120 ppm NaNO2, 550 ppm NaEr + 250 ppm EL, listed as EL): 1.2 ppb and 1.7 ppb
Level of dimethylnitrosamine (DMNA) detected in fried bacon [3, 17]: trace (Trace means less than 1 ppb)
Level of dimethylnitrosamine (DMNA) detected in fried bacon ([3]; 120 ppm NaNO2, 995 ppm EL, no NaEr, listed as EL): 1.2 ppb and 1.0 ppb
Level of dimethylnitrosamine (DMNA) detected in fried bacon ([3]; 200 ppm NaNO2, 550 ppm NaEr + 250 ppm EL): 2.0 ppb
Level of dimethylnitrosamine (DMNA) detected in fried bacon ([3]; 200 ppm NaNO2, 550 ppm NaEr + 500 ppm EL, listed as EL): 1.3 ppb and 1.9 ppb
Level of dimethylnitrosamine (DMNA) detected in fried bacon ([3]; 200 ppm NaNO2, 995 ppm EL, no NaEr, listed as EL): 2.2 ppb and 1.7 ppb

tocopherol [reference compound]
Level of nitrosopyrrolidine (NPy) detected in fried bacon ([2]; 120 ppm NaNO2, 550 ppm NaEr + 500 ppm TOC (positive control)): none detected (Limit of detection is 0.2 ppb)
Distribution coefficient (oil/water) (in words) [1]: essentially infinity
